The nature of experiment [1]: Compound was tested for its affinity towards Alpha-2 adrenergic receptor.
The nature of experiment [2]: Compound was tested for its ability inhibit forskolin-stimulated activity of adenylate cyclase coupled to human 5-HT 1D-beta receptor in CHO-K1 cells.
Experiment [3] is described as follows: Compound was tested for its ability inhibit forskolin-stimulated activity of adenylate cyclase coupled to human 5-hydroxytryptamine 1D receptor beta in CHO-K1 cells; value ranges from 2.8-6.5.
The nature of experiment [4]: Compound was tested for its ability inhibit forskolin-stimulated activity of adenylate cyclase coupled to human 5-hydroxytryptamine 1D receptor beta in CHO-K1 cells; value ranges from 0.24-0.55.
A short description of experiment [5]: Binding affinity towards cloned human 5-hydroxytryptamine 1D receptor beta was determined.
The nature of experiment [6]: Compound was tested for its ability inhibit forskolin-stimulated activity of adenylate cyclase coupled to human 5-HT 1D-beta receptor in CHO-K1 cells. This is another data set of the same source.
The nature of experiment [7]: Compound was tested for its ability inhibit forskolin-stimulated activity of adenylate cyclase coupled to human 5-hydroxytryptamine 1D receptor beta in CHO-K1 cells; value ranges from 0.24-0.55. This is another data set of the same source.

Bounds are passed on as bounds.

What is called IC50 is the concentration that inhibits the measured activity by half. A low value points to higher potency. Consider `Cc1ccccc1N1CCN(C(=O)COc2ccc3[nH]cc(CCN)c3c2)CC1`, for which the 50% inhibitory concentration (IC50) in experiment [1] was greater than 10 µM.
As a reminder, the EC50 is the midpoint of the concentration-response curve. The low end stands for greater potency, the high end for weaker potency. Compound `CCCCCCCCCOc1ccc2[nH]cc(CCN)c2c1` [2-(5-Nonyloxy-1H-indol-3-yl)-ethylamine] displayed an EC50 in experiment [2] of 68 nM.
As usually defined, the Ki is a measure of affinity in units of concentration, obtained from inhibition or displacement. `NCCc1c[nH]c2ccc(OCC(=O)N3CCN(c4cccc5ccccc45)CC3)cc12` [2-[3-(2-Amino-ethyl)-1H-indol-5-yloxy]-1-(4-naphthalen-1-yl-piperazin-1-yl)-ethanone]: the half-inhibitory concentration (IC50) in experiment [1] was greater than 1 µM. The compound further came in with an EC50 in experiment [3] of 2.8 nM. In experiment [4], this compound displayed an inhibition constant Ki of 0.52 nM.
In experiment [5], `NCCc1c[nH]c2ccc(OCC(=O)N3CCN(c4ccccc4)CC3)cc12` [2-[3-(2-Amino-ethyl)-1H-indol-5-yloxy]-1-(4-phenyl-piperazin-1-yl)-ethanone] came in with an inhibition constant Ki of 0.6 nM. This compound returned an EC50 in experiment [6] of 0.45 nM.
`COc1cccc(N2CCN(C(=O)COc3ccc4[nH]cc(CCN)c4c3)CC2)c1` [2-[3-(2-Amino-ethyl)-1H-indol-5-yloxy]-1-[4-(3-methoxy-phenyl)-piperazin-1-yl]-ethanone] yielded an inhibition constant Ki in experiment [5] of 0.4 nM. This compound had an EC50 in experiment [7] of 0.24 nM.

Source of the values: BindingDB's records for doi:10.1016/0960-894X(95)00091-7 (1995).
